Laboratory results published in patent publication US8338598B2, “Herbicidal pyrido[2,3-B]pyrazines and their use as herbicides” (Syngenta Limited, priority 2008, dated 2012).

Experiments:
Type in all cases: in vivo
Stellaria media = assay: Example B1 herbicidal action, post-emergence, seed trays in climatic chamber; details: 1000 g/ha, evaluated after 9 days, 10=total damage to plant, 0=no damage to plant
Procedure: (§1) Seeds of a variety of test species were sown in sterilised standard soil in seed trays each having 96 cells. After cultivation for 8 to 9 days cultivation (post-emergence) under controlled conditions in a climatic chamber (cultivation at 23/17° C., day/night; 13 hours light; 50-60% humidity), the plants were treated with an aqueous spray solution of 1000 mg/l of the active ingredient dissolved in 10% DMSO (dimethyl sulfoxide, CAS RN 67-68-5) as a solvent, equivalent to 1000 g/ha. The plants were grown in the climatic chamber after application at (24/19° C., day/night; 13 hours light; 50-60% humidity) and watered twice daily. After 9 days until the test was evaluated (10=total damage to plant, 0=no damage to plant)

Nasturtium officinale = assay: as above; details: 1000 g/ha, evaluated after 9 days, 10=total damage to plant, 0=no damage to plant
Procedure: as §1

Amaranthus retroflexus [1] = assay: as above; details: 1000 g/ha, evaluated after 9 days, 10=total damage to plant, 0=no damage to plant
Procedure: as §1

Solanum nigrum [2] = assay: as above; details: 1000 g/ha, evaluated after 9 days, 10=total damage to plant, 0=no damage to plant
Procedure: as §1

Setaria faberi = assay: Example B2 herbicidal action, post-emergence, pots in glasshouse; details: evaluated after 13 days, 10=total damage to plant, 0=no damage to plant
Procedure: (§2) Seeds of a variety of test species were sown in standard soil in pots. After cultivation for one day (pre-emergence) or after 8 days cultivation (post-emergence) under controlled conditions in a glasshouse (at 24/16° C., day/night; 14 hours light; 65% humidity), the plants were sprayed with an aqueous spray solution derived from the formulation of the technical active ingredient in acetone/water (50:50) solution containing 0.5% Tween 20 (polyoxyethelyene sorbitan monolaurate, CAS RN 9005-64-5). The test plants were then grown in a glasshouse under controlled conditions in a glasshouse (at 24/16° C., day/night; 14 hours light; 65% humidity) and watered twice daily. After 13 days, the test was evaluated (10=total damage to plant; 0=no damage to plant).

Echinochloa crus-galli = assay: as above; details: evaluated after 13 days, 10=total damage to plant, 0=no damage to plant
Procedure: as §2

Amaranthus retroflexus [3] = assay: as above; details: evaluated after 13 days, 10=total damage to plant, 0=no damage to plant
Procedure: as §2

Solanum nigrum [4] = assay: as above; details: evaluated after 13 days, 10=total damage to plant, 0=no damage to plant
Procedure: as §2

Ipomea hederaceae = assay: as above; details: evaluated after 13 days, 10=total damage to plant, 0=no damage to plant
Procedure: as §2

test plants [5] = assay: Example B2 herbicidal action, pre-emergence, overall statement on the test plants; details: Example B2 protocol, rate not stated, result in words
Procedure: as §2

test plants [6] = assay: Example B2 herbicidal action, post-emergence, overall statement on the test plants; details: Example B2 protocol, rate not stated, result in words
Procedure: as §2

Structure (SMILES)	STEME, damage to plant (Stellaria media)	NAAOF, damage to plant (Nasturtium officinale)	AMARE, damage to plant (Amaranthus retroflexus [1])	SOLNI, damage to plant (Solanum nigrum [2])	damage to the test plants (test plants [5])	also measured
CC(C)C(=O)Oc1c(-c2ncc(Cl)cc2Cl)c(=O)n(C)c2nccnc12 [Compound A7, Isobutyric acid 7-(3,5-dichloro-pyrid-2-yl)-5-methyl-6-oxo-5,6-dihydro-pyrido[2,3-b]pyrazin-8-yl ester]	7	7	7	0		
Cn1nc(-c2c(O)c3nccnc3[nH]c2=O)c(C(F)(F)F)n1 [Compound B27]					little or no damage	SETFA, damage to plant (Setaria faberi; 1000 g/ha): 3; ECHCG, damage to plant (Echinochloa crus-galli; 1000 g/ha): 1; AMARE, damage to plant (Amaranthus retroflexus [3]; 1000 g/ha): 0; SOLNI, damage to plant (Solanum nigrum [4]; 1000 g/ha): 0; IPOHE, damage to plant (Ipomea hederaceae; 1000 g/ha): 1
Cc1noc(-c2c(O)c3nccnc3n(C)c2=O)n1 [Compound B5, 8-hydroxy-5-methyl-7-(3-methyl-1,2,4-oxadiazol-5-yl)-5H-pyrido[2,3-b]pyrazin-6-one]	0	0	3	0		
Cc1nc(Cl)sc1-c1c(OC(=O)C(C)C)c2nccnc2n(C)c1=O [Compound B2, isobutyric acid 7-(2-chloro-4-methyl-thiazol-5-yl)-5-methyl-6-oxo-5,6-dihydro-pyrido[2,3-b]pyrazin-8-yl ester]	0	5	0	0		
Cc1cc(-c2c(OC(=O)C(C)C)c3nccnc3[nH]c2=O)n2nc(C)cc2n1 [Compound C4]	0	0	0	2		
O=c1[nH]c2nccnc2c(O)c1-c1ccc(Cl)nc1Cl [Compound A13, 7-(2,6-dichloro-pyrid-3-yl)-8-hydroxy-5H-pyrido[2,3-b]pyrazin-6-one]					little or no damage	SETFA, damage to plant (Setaria faberi; 1000 g/ha): 6; ECHCG, damage to plant (Echinochloa crus-galli; 1000 g/ha): 6; AMARE, damage to plant (Amaranthus retroflexus [3]; 1000 g/ha): 6; SOLNI, damage to plant (Solanum nigrum [4]; 1000 g/ha): 5; IPOHE, damage to plant (Ipomea hederaceae; 1000 g/ha): 6
CCn1c(=O)c(-c2ncc(Cl)cc2Cl)c(OC(=O)C(C)C)c2nccnc21 [Compound A6, isobutyric acid 7-(3,5-dichloro-pyrid-2-yl)-5-ethyl-6-oxo-5,6-dihydro-pyrido[2,3-b]pyrazin-8-yl ester]	3	5	2	0		
CCn1c(=O)c(-c2sc(Cl)nc2C)c(OC(=O)C(C)(C)C)c2nccnc21 [Compound B4]	2	8	0	3		
CC(C)C(=O)Oc1c(-c2c(C(F)(F)F)nn(C)c2OC(F)F)c(=O)[nH]c2nccnc12 [Compound B23, isobutyric acid 7-(5-difluoromethoxy-1-methyl-3-trifluoromethyl-1H-pyrazol-4-yl)-6-oxo-5,6-dihydro-pyrido[2,3-b]pyrazin-8-yl ester]					little or no damage	SETFA, damage to plant (Setaria faberi; 250 g/ha): 4; ECHCG, damage to plant (Echinochloa crus-galli; 250 g/ha): 2; AMARE, damage to plant (Amaranthus retroflexus [3]; 250 g/ha): 3; SOLNI, damage to plant (Solanum nigrum [4]; 250 g/ha): 1; IPOHE, damage to plant (Ipomea hederaceae; 250 g/ha): 2
O=c1[nH]c2nccnc2c(O)c1-c1cc(Cl)sc1Cl [Compound B12]	0	0	6	0		
Cc1nc2cc(-c3c(OC(=O)C(C)(C)C)c4nccnc4[nH]c3=O)ccc2o1 [Compound C5]					little or no damage	damage to the test plants (test plants [6]): little or no damage
Cn1c(=O)c(-c2ccc(Cl)nc2Cl)c(OC(=O)C(C)(C)C)c2nccnc21 [Compound A15, 2,2-Dimethyl-propionic acid 7-(2,6-dichloro-pyrid-3-yl)-5-methyl-6-oxo-5,6-dihydro-pyrido[2,3-b]pyrazin-8-yl ester]					little or no damage	SETFA, damage to plant (Setaria faberi; 250 g/ha): 0; ECHCG, damage to plant (Echinochloa crus-galli; 250 g/ha): 3; AMARE, damage to plant (Amaranthus retroflexus [3]; 250 g/ha): 2; SOLNI, damage to plant (Solanum nigrum [4]; 250 g/ha): 4; IPOHE, damage to plant (Ipomea hederaceae; 250 g/ha): 4
Cc1nc(Cl)sc1-c1c(OC(=O)C(C)(C)C)c2nccnc2n(C)c1=O [Compound B3]	2	6	0	0		
CC(C)C(=O)Oc1c(-c2cc(C(F)(F)F)no2)c(=O)n(C)c2nccnc12 [Compound B8, isobutyric acid 5-methyl-6-oxo-7-(3-trifluoromethyl-isoxazol-5-yl)-5,6-dihydro-pyrido[2,3-b]pyrazin-8-yl ester]	0	2	0	2		
CCOC(=O)Oc1c(-c2ncc(Cl)cc2Cl)c(=O)n(C)c2nccnc12 [Compound A2, Carbonic acid 7-(3,5-dichloro-pyrid-2-yl)-5-methyl-6-oxo-5,6-dihydro-pyrido-[2,3-b]pyrazin-8-yl ester ethyl ester]	5	5	0	0		
O=c1[nH]c2nccnc2c(O)c1-c1sc(Cl)nc1C(F)(F)F [Compound B11]	5	5	3	2		
Cc1nc2cc(-c3c(OC(=O)C(C)(C)C)c4nccnc4n(CC(F)F)c3=O)ccc2o1 [Compound C6]					little or no damage	SETFA, damage to plant (Setaria faberi; 1000 g/ha): 0; ECHCG, damage to plant (Echinochloa crus-galli; 1000 g/ha): 0; AMARE, damage to plant (Amaranthus retroflexus [3]; 1000 g/ha): 3; SOLNI, damage to plant (Solanum nigrum [4]; 1000 g/ha): 2; IPOHE, damage to plant (Ipomea hederaceae; 1000 g/ha): 0
CC(C)(C)C(=O)Oc1c(-c2c(Cl)cncc2Cl)c(=O)[nH]c2nccnc12 [Compound A8, 2,2-Dimethyl-propionic acid 7-(3,5-dichloro-pyrid-4-yl)-6-oxo-5,6-dihydro-pyrido[2,3-b]pyrazin-8-yl ester]					little or no damage	SETFA, damage to plant (Setaria faberi; 1000 g/ha): 0; ECHCG, damage to plant (Echinochloa crus-galli; 1000 g/ha): 0; AMARE, damage to plant (Amaranthus retroflexus [3]; 1000 g/ha): 0; SOLNI, damage to plant (Solanum nigrum [4]; 1000 g/ha): 1; IPOHE, damage to plant (Ipomea hederaceae; 1000 g/ha): 1
